# Laboratory results as given in paper PMC5830979, “Preclinical In Vitro and In Vivo Evaluation of [^18F]FE@SUPPY for Cancer PET Imaging: Limitations of a Xenograft Model for Colorectal Cancer” (Contrast Media & Molecular Imaging, 2018).
# Where two headings read alike, the source gives them in different places.
# Assays:
# [1] = Ex vivo biodistribution in BALB/c mice; conditions: 70 min after tracer application, n = 3
# Description: Ex vivo biodistribution of [^18F]FE@SUPPY was assessed 70 min after tracer application in BALB/c mice. Radioactivity was determined using a gamma counter (2480 Wizard^2, PerkinElmer), organs were wet-weighted, and percentage of injected dose per gram of organ was calculated (%ID/g).
# [2] = tested on: colorectal carcinoma tissue slices; test: Autoradiography of human colorectal carcinoma versus healthy colon tissue slices; type: binding; conditions: in 5 of 7 regions, two CRC patients, P < 0.05
# Description: Colorectal carcinoma tissue and adjacent healthy colon tissue were obtained directly after tumorectomy from two patients after full informed consent and quick-frozen in 2-methylbutane (−40°C). Tissue was sliced into 16 μm slices using a microcryotome (Thermo Scientific Microm HM 560) and stored at −80°C until usage. Depending on the sample size, 3 to 4 different regions were defined and analyzed by means of autoradiography and immunohistochemistry.
# Tissue slices were thawed and reconstituted in assay buffer (50 mM Tris-HCl pH 7.4, 100 mM NaCl, 1 mM EDTA, 1% BSA, 1 unit adenosine deaminase/100 mL) for 30 min at RT. Radiosynthesis of [^18F]FE@SUPPY was performed as previously described and the product was physiologically formulated (EtOH/0.9% saline 10/90). Tissue slices were incubated with 50 kBq [^18F]FE@SUPPY (40–200 GBq/μmol) in 100 μL assay buffer for 1 h at RT. Slices were thoroughly washed with ice-cold wash buffer (50 mM Tris-HCl pH 7.4), dried, and exposed to a phosphor screen overnight. The readout of the phosphor storage screen was performed on a Cyclone Phosphor Imager (Perkin Elmer), and data analysis was performed using OptiQuant® Software as previously described. […] Differences among groups (colorectal cancer versus healthy colon) were analyzed using a two-tailed, unpaired Student's t-test with Welch's correction.
# [3] = set-up: method as in PMID 25601336; conditions: rats, after 60 min; cited from earlier work
# [4] = Ex vivo blood stability in BALB/c mice; conditions: 70 min after retroorbital injection
# Description: Radiosynthesis was performed as described elsewhere and the product was processed as follows: ethanol was totally evaporated and the dry product was again physiologically formulated in 1.5–2 mL Tween-20/EtOH/0.9% saline 1/9/90 to obtain activity concentrations of approximately 1 GBq/mL. Healthy BALB/c mice were injected with 18 ± 2 MBq (molar activity = 70–200 GBq/μmol) retroorbitally and sacrificed after 5, 10, 20, 40, and 70 min (n = 3 for each time point). Blood samples were collected and immediately precipitated using acetonitrile/methanol (10 : 1) and centrifuged (12,000 rpm, 5 min, 4°C). The obtained supernatants were subjected to radio-HPLC as previously described.
# [5] = tested on: HT-29 xenografts; test: µPET imaging of HT-29 / CHO-K1 xenograft-bearing CB17-SCID mice; type: in vivo; conditions: µPET 60 min, baseline
# Description: After 10 to 14 days upon arrival, CB17-SCID mice were injected subcutaneously with 2 × 10^6 HT-29 cells into one flank and 2 × 10^6 CHO-K1 cells in the opposite flank (n = 9). Body weight and tumor development were monitored every second day by caliper measurement. The respective tumor volume was calculated according to the following equation: tumor volume (mm^3) = d^2 × D/2 (where d is the shortest diameter and D the longest diameter). Animals were subjected to μPET imaging 10 days after inoculation, when tumors reached a volume of at least 300 mm^3. Tumor volume never exceeded 1 cm^3.
# Xenograft-bearing CB17-SCID mice were anesthetized using isoflurane (2.5%) mixed with oxygen (1.5 L/min) to avoid movement during the imaging. Blocking agents (2 mg/kg BW FE@SUPPY or MRS1523) or the respective vehicle control (Tween-20/EtOH/0.9% physiological saline 1/9/90) was administered retroorbitally 2 min prior to the radiotracer administration (n = 3 per group). Subsequently, the animals received another retroorbital injection of 17.42 ± 4.5 MBq [^18F]FE@SUPPY into the venous plexus of the opposite eye. With a minor delay after the application of the radiotracer (2-3 min), mice were placed into the field of view of the scanner (μPET/CT Inveon, Siemens Medical Solution, Knoxville, USA), and dynamic imaging was performed for 60 min to follow tracer distribution. Vital parameters (respiration, body temperature) were continuously monitored using a dedicated monitoring unit (bioVet; m2m imaging, Cleveland, OH, USA) to ensure the depth of anesthesia and wellbeing of the animals.
# [6] = In vitro stability against mouse liver microsomes; type: in vitro ADME; conditions: purified mouse liver microsomes, 120 min
# Description: (§1) Stability of [^18F]FE@SUPPY was tested against mouse liver microsomes, mouse S9 fraction, and mouse plasma (BD Sciences). Amount of intact tracer (%) was determined after 5, 10, 20, 40, 60, and 120 min using an Agilent series 1100/1200 HPLC system connected to a radioactivity detector (Raytest, Ramona Star) (n = 2 in triplicate). The assay was conducted as previously described for respective rat and human enzymes.
# [7] = In vitro stability against mouse S9 fraction; type: in vitro ADME; conditions: mouse liver homogenates (S9 fraction), 120 min
# Description: as §1
# [8] = In vitro stability in mouse plasma; type: in vitro ADME; conditions: 120 min incubation at 37°C
# Description: as §1
# [9] = tested on: HCT-116 cells; set-up: method as in PMID 23454010; conditions: A3AR dependent; cited from earlier work
# [10] = tested on: HT-29 cells; set-up: method as in PMID 23454010; conditions: 1 µM, A3AR-dependent; cited from earlier work
# [11] = tested on: rat A3AR; set-up: method as in PMID 25242859; conditions: cited from earlier work
# [12] = target: hA2AAR (Homo sapiens, UniProt P29274); test: Competitive binding assay, hA2AAR membranes, [3H]CGS21680; conditions: read-out: Ki hA2AAR; [3H]CGS21680 50 nM; DMSO up to 10%; n = 3–5 in triplicate
# Chain of hA2AAR (P29274 whole entry): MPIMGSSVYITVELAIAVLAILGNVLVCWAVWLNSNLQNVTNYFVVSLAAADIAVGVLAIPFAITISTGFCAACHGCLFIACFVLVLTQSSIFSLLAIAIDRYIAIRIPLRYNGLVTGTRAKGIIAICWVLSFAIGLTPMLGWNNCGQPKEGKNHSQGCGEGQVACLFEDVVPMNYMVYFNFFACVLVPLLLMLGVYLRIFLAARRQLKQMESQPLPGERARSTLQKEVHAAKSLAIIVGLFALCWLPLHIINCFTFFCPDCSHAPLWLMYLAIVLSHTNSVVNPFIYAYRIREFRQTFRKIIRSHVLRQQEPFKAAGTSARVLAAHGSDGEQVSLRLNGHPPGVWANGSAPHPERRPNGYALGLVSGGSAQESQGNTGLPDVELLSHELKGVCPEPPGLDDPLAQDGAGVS
# Description: (§2) The assay was performed according to the manufacturer's instructions in a final volume of 500 μL. Increasing concentrations of test compounds were added, whereby the concentration of dimethyl sulfoxide (DMSO) in final assay volume remained ≤10% (hA1AR and hA2AAR assay) and ≤1% in the hA3AR assay. Nonspecific binding was determined using 1 μM DPCPX (hA1R assay), 1 μM SCH-442,416 (hA2AR assay), or 10 μM I-AB-MECA (hA3AR assay). Filtration through GF/B filters (Whatman®, presoaked in 0.1% PEI or 0.5% BSA) was performed using a cell harvester (Brandel®), and receptor-bound radioactivity was determined via gamma counting (2480 Wizard^2, PerkinElmer) or liquid scintillation counting (Hidex 300 SL). IC50 fitted binding curves were generated using the GraphPad Software 5.0, and Ki values were calculated using the Cheng-Prusoff equation.
# [13] = target: T1, hA1AR (Homo sapiens, UniProt P30542); test: Competitive binding assay, hA1AR membranes, [3H]DPCPX; conditions: for Ki: read-out: Ki hA1AR, [3H]DPCPX […], DMSO up to 10%, n = 3–5 in triplicate
# T1 sequence (P30542 1-326): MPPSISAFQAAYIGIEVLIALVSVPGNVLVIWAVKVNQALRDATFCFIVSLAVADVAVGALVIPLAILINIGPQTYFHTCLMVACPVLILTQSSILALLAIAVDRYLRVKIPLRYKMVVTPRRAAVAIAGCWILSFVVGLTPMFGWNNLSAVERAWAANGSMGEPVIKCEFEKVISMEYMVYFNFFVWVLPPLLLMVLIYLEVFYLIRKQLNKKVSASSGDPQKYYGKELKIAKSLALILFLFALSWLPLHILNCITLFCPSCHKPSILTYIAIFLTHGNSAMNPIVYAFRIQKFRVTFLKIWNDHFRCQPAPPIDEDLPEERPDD
# Description: as §2
# [14] = target: T2, hA3AR (Homo sapiens, UniProt P0DMS8); test: Competitive binding assay, hA3AR membranes, [125I]AB-MECA; conditions: read-out: Ki hA3AR, [125I]AB-MECA 0.4 nM, DMSO ≤1%
# T2 sequence (P0DMS8 1-318): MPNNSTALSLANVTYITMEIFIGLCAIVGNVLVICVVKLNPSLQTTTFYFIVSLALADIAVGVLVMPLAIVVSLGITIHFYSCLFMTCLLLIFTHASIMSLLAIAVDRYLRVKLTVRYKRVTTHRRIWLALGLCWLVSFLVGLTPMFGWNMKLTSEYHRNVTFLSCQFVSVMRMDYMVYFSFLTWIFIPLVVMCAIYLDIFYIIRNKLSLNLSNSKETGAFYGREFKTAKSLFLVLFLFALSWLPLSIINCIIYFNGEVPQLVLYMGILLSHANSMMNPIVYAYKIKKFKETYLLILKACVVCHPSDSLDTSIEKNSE
# Description: as §2
# [15] = tested on: HT-29 cells; set-up: method as in PMID 17488804; conditions: hypoxic conditions, through A3AR stimulation; cited from earlier work
structure (smiles),measurement,setting,value
"CCSC(=O)c1c(CC)nc(-c2ccccc2)c(C(=O)OCC[18F])c1CC [[^18F]FE@SUPPY, 5-(2-[18F]fluoroethyl) 2,4-diethyl-3-(ethylsulfanylcarbonyl)-6-phenylpyridine-5-carboxylate]",accumulation in bile fluid,[1],162.78 ± 37.51 % ID/g
same,accumulation in brain,[1],0.23 ± 0.03 % ID/g
same,accumulation in heart,[1],1.13 ± 0.04 % ID/g
same,accumulation in kidneys,[1],2.67 ± 0.24 % ID/g
same,accumulation in liver,[1],14.57 ± 0.20 % ID/g
same,accumulation in lung,[1],1.50 ± 0.23 % ID/g
same,accumulation in urine,[1],43.33 ± 9.23 % ID/g
same,circulating radioactivity in blood,[1],1.6 ± 0.1 % ID/g
same,higher binding in colorectal carcinoma versus healthy colon tissue of the same patient,[2],≥ 2.3 fold
same,intact tracer in plasma,[3],25.8 ± 5.3%
same,intact tracer in blood (ex vivo),[4],2.2 ± 0.4%
same,SUV CHO-K1 xenograft tumor (hA3AR negative control),[5]; CB17-SCID mice,0.25 ± 0.33
same,SUV HT-29 xenograft tumor,[5]; CB17-SCID mice,0.23 ± 0.06
same,SUV bile fluid,[5]; CB17-SCID mice,21.85 ± 10.63
same,SUV blood,[5]; CB17-SCID mice,1.21 ± 0.11
same,SUV urine,[5]; CB17-SCID mice,8.86 ± 3.44
same,SUV liver,[5]; xenograft-bearing CB17-SCID mice,6.68 ± 0.80
same,intact tracer,[6],31.4 ± 7.8%
same,intact tracer,[7],66.9 ± 6.7%
same,intact tracer,[8],92.6 ± 0.7%
CNC(=O)[C@H]1O[C@@H](n2cnc3c(NCc4cccc(I)c4)ncnc32)[C@H](O)[C@@H]1O [IB-MECA],effect on cells,[9],causes cell apoptosis
same,effect on cell growth,[10],growth promoting effect
Nc1ncnc2c1ncn2[C@@H]1O[C@H](CO)[C@@H](O)[C@H]1O [adenosine],affinity for the A3AR,[11],~ 1 µM
CCSC(=O)c1c(CC)nc(-c2ccccc2)c(C(=O)O)c1CC [DFE@SUPPY],Ki,[12],37.1 ± 16 µM
same,hA1/hA3AR selectivity ratio,[13]; ratio of Ki values,324
same,Ki,[13],5.46 ± 0.4 µM
same,Ki,[14]; n = 3–5 in triplicate,2.58 ± 1.2 µM
CCSC(=O)c1c(CC)nc(-c2ccccc2)c(C(=O)OCCF)c1CC [FE@SUPPY],Ki,[12],1.72 ± 0.4 µM
same,Ki,[13],4.03 ± 1 µM
same,Ki,[14]; n = 3,0.00602 ± 0.0004 µM
Cn1c(=O)c2c(ncn2C)n(C)c1=O [caffeine],effect on HIF-1 protein and VEGF expression,[15],leads to hypoxia-inducible factor-1 (HIF-1) protein accumulation and increased vascular endothelial growth factor (VEGF) expression
